{"source": "patent US20250352589A1", "about": "“OXYTOCIN-MIMETIC COMPOSITIONS AND USES THEREOF” (INSTITUT NATIONAL DE LA SANTÉ ET DE LA RECHERCHE MÉDICALE, priority 2021, published 2025)", "key": {"human OT-R": {"biological_target": "T1, human OT-R (Homo sapiens, UniProt P30559)", "T1 construct": "expressed in transfected cells; host or cells: HEK cells", "T1 sequence (P30559 1-389)": "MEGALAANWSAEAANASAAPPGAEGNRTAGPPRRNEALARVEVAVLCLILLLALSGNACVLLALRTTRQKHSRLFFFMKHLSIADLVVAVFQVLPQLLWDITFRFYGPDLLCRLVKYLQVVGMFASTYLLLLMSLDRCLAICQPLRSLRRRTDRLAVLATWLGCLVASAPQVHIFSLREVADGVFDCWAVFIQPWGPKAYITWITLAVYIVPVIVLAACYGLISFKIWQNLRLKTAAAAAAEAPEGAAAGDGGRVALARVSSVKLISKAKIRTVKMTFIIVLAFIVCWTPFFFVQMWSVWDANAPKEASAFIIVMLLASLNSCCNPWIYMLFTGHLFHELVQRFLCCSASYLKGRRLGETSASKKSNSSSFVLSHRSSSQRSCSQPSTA", "test": "Activation of OT-R by bacterial peptides: calcium release from HEK cells transfected with human OT-R", "type": "cell-based", "conditions": "OTR expressing HEK cells"}, "[1]": {"test_system": "non-transfected HEK cells", "test": "Negative control: activation of non-transfected HEK cells", "type": "cell-based", "protocol": "The activation of OT-R by bacterial peptides was analyzed by the measurement of calcium release from HEK cells transfected with human OT-R\nAs a negative control, no activation of non-transfected HEK cells with OT or bacterial peptides was observed."}}, "data": [{"compound": "CC[C@H](C)[C@@H]1NC(=O)[C@H](Cc2ccc(O)cc2)NC(=O)[C@@H](N)CSSC[C@@H](C(=O)N2CCC[C@H]2C(=O)N[C@@H](CC(C)C)C(=O)NCC(N)=O)NC(=O)[C@H](CC(N)=O)NC(=O)[C@H](CCC(N)=O)NC1=O", "note": "[OT, Oxytocin]", "values": [{"measurement": "specific activation of OTR", "setting": "human OT-R", "result": "specifically activated OTR"}, {"measurement": "activation of non-transfected HEK cells", "setting": "[1]", "result": "no activation"}]}]}
